{"source": "patent US20120288531A1", "about": "“PHARMACEUTICAL COMPOSITIONS FOR DELIVERY OF FERRIC IRON COMPOUNDS, AND METHODS OF USE THEREOF” (priority 2011, published 2012)", "key": {"[1]": {"assay": "Stability of ferric acetyl-hydroxamate complex in pre-hydrophilic fraction", "details": "pre-hydrophilic fraction of Table 1 (10% PVP-12 and 15% NaC8), 4 hours"}, "[2]": {"details": "one month at 25° and 40° C."}, "[3]": {"system": "Blood hemoglobin", "assay": "Repeated doses: effect on blood hemoglobin in normal SD rats", "assay_type": "in vivo", "details": "ROA IJ (FAC) or PO (ferrous sulfate)", "procedure": "Blood samples were collected pre-dosing (Day 1) and post-dosing (Day 22). Blood hemoglobin was evaluated using colorimetric assay."}}, "data": [{"compound": "CC(=O)N[O-].CC(=O)N[O-].CC(=O)N[O-].[Fe+3]", "note": "[ferric acetyl-hydroxamate]", "values": [{"measurement": "precipitation and Fe2+ formation", "setting": "[1]", "result": "Neither precipitation nor Fe^2+ formation was observed"}, {"measurement": "stability in the pre-hydrophilic fraction", "setting": "[1]", "result": "stable for 4 hours"}]}, {"compound": "O.O=C([O-])CN(CCN(CC(=O)[O-])CC(=O)[O-])CC(=O)[O-].[Fe+3].[Na+]", "note": "[ferric sodium EDTA, ethylenediaminetetraacetic acid iron(III) sodium salt hydrate]", "values": [{"measurement": "stability in the oily suspension", "setting": "[2]", "result": "good stability"}]}, {"compound": "ferrous sulfate", "values": [{"measurement": "Hb at Day 22 (Mean ± SE)", "setting": "[3]; post-dosing, daily for 21 days (18 doses), 6.3 mg iron per dose", "result": "13.9 ± 0.2", "unit": "g/dL"}, {"measurement": "Hb at Day 1 (Mean ± SE)", "setting": "[3]; pre-dosing, normal SD rats", "result": "14.2 ± 0.2", "unit": "g/dL"}]}]}
